{
  "source": "patent US11420976B2",
  "about": "(priority 2020, dated 2022)",
  "key": {"HRSV": {"test_system": "HRSV", "conditions": "high risk infants, prophylactic use; cited from earlier work"}, "[1]": {"test_system": "rHMPV-GFP (recombinant HMPV CAN97-83, MPV-GFP1)", "assay": "HMPV antiviral assay (eGFP fluorescence in Vero E6 cells)", "format": "cell-based", "conditions": "Vero C1008, 120 h, read-out: rHMPV-GFP EC50", "experimental": "HMPV antiviral activity was evaluated using a recombinant version of HMPV CAN97-83 engineered to contain the coding sequence for enhanced green fluorescence protein (eGFP) in the 3′ end of the virus genome (MPV-GFP1, ViraTree). Vero E6 cells (ATCC #CCL-7) were seeded at a density of 12,000 cells/100 μL/well into 96-well cell plates (VENDOR) one day prior to the assay. On the day of screening, the cell culture medium was aspirated from the wells and cells were washed twice with serum-free Eagle's Modified Essential Medium (EMEM, ATCC #) containing 1% penicillin-streptomycin (Invitrogen) (SF-EMEM). Cell washes were performed by dispensing 100 μL SF-EMEM per well and immediately aspirating the wash medium from the well. Following the second wash step, serum-free OptiMEM (Invitrogen, Cat No.) (SF-OptiMEM) containing 0.5 μg/mL TPCK-Trypsin (VENDOR) and 1% penicillin-streptomycin was added to the cells at 50 μL/well. Compounds were added into the 96-well plates using a JANUS automated liquid handling system (VENDOR). Compounds were initially diluted 1:50 into an intermediate 96-well plate containing SF-OptiMEM prior to transfer to the assay plate (25 μL/well). Each of the test compounds was tested in duplicate wells at final concentrations starting from 8 μM or 2 μM using ½ stepwise dilutions for a total of 8 points. Virus infection was performed by preparing a working stock of MPV-GFP1 at a multiplicity of infection (MOI) equal to 0.05/25 μL and aliquoting 25 μL of virus inoculum to the compound and positive control wells. SF-OptiMEM was added (25 μL/well) to the appropriate wells to serve as a virus-free negative control for the assay. The final DMSO concentration of all wells is 0.5%. Plates were incubated at 32° C., 5% CO2 for 5 days. After 5 days incubation, eGFP fluorescence intensity was measured at […] using a Spectramax i3X plate reader (VENDOR). Percent viral inhibition was calculated using the following equation: y=[[…]]×100 Where XQ is the fluorescence intensity measured in a well containing recombinant MPV-GFP1-infected, compound-treated cells and XP is the average fluorescence intensity measured in the wells containing untreated cells infected with recombinant virus. EC50 values were then calculated by non-linear regression using a four parameter curve logistic equation. The curve fit model employed was XLFit Dose Response One Site Model 200: y=(A+(B/(1+((x/C)^D)))) Where A is the minimum y value, B is the maximum y value, C is the log EC50 value, and D is the slope factor. The EC50 of each compound is listed in Table 2 and EC50 ranges are as follows: A<0.2 μM; B≥0.2 μM."}, "[2]": {"test_system": "Human RSV-A (“Long” strain)", "assay": "RSV-A assay (CPE, ATPlite readout in Hep-2 cells)", "format": "cell-based", "conditions": "human respiratory syncytial virus, 120 h; Hep-2 cells, MOI 0.1, 5-day incubation, ATPlite; read-out: Human RSV-A (“Long” strain) EC50", "summary_of_the_method": "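Hep-2 cells (8,000/well) infected with RSV-A Long at MOI 0.1 in the presence of 2-fold compound dilutions, in duplicate. After 5 days, protection from cytopathic effect read as cellular ATP by ATPlite luminescence, with virus-only and cell-only controls; EC50 reported.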"}},
  "data": [
    {"molecule": "Palivizumab", "values": [
      {"measurement": "effective in reducing hospitalizations", "setting": "HRSV", "result": 60, "unit": "%"}
    ]},
    {"molecule": "N[C@@]1(C(F)(F)F)COc2c1cc([C@@](O)(CNC(=O)c1cc(OC3CC3)c3nn(C4CC4)cc3c1)C1CC1)nc2-c1ccc(F)cc1", "note": "[Example 55c, N—((S)-2-((R)-3-amino-7-(4-fluorophenyl)-3-(trifluoromethyl)-2,3-dihydrofuro[2,3-c]pyridin-5-yl)-2-cyclopropyl-2-hydroxyethyl)-7-cyclopropoxy-2-cyclopropyl-2H-indazole-5-carboxamide]", "values": [
      {"measurement": "EC50", "setting": "[1]", "result": "< 200", "unit": "nM"},
      {"measurement": "EC50", "setting": "[2]", "result": "< 200", "unit": "nM"}
    ]},
    {"molecule": "COc1cc(C(=O)NC[C@@](O)(c2cc3c(c(-c4ccc(F)cc4)n2)OC[C@]3(N)C(F)(F)F)C(F)(F)F)ccc1OC1CC1", "note": "[Example 4, N—((R)-2-((S)-3-amino-7-(4-fluorophenyl)-3-(trifluoromethyl)-2,3-dihydrofuro[2,3-c]pyridin-5-yl)-3,3,3-trifluoro-2-hydroxypropyl)-4-cyclopropoxy-3-methoxybenzamide]", "values": [
      {"measurement": "EC50", "setting": "[1]", "result": "> 200", "unit": "nM"},
      {"measurement": "EC50", "setting": "[2]", "result": "> 200", "unit": "nM"}
    ]},
    {"molecule": "N[C@@]1(C(F)(F)F)COc2c1cc([C@@](O)(CNC(=O)c1cc(OC3CC3)c3nn(C4CC4)cc3c1)C1CC1)nc2-c1ccc(F)c(Cl)c1", "note": "[Example 55d, N—((S)-2-((R)-3-amino-7-(3-chloro-4-fluorophenyl)-3-(trifluoromethyl)-2,3-dihydrofuro[2,3-c]pyridin-5-yl)-2-cyclopropyl-2-hydroxyethyl)-7-cyclopropoxy-2-cyclopropyl-2H-indazole-5-carboxamide]", "values": [
      {"measurement": "EC50", "setting": "[1]", "result": "< 200", "unit": "nM"},
      {"measurement": "EC50", "setting": "[2]", "result": "< 200", "unit": "nM"}
    ]}
  ]
}
